14 molecules from US5280047A, “2-(4-substituted)phenylmethylene derivatives and methods of use” (G. D. Searle & Co., priority 1993, dated 1994) can be followed below.

The structures appear in SMILES notation. Values joined by “and” are separate entries in the source; they are usually repeats but may differ in a detail not shown here. Identical values can stand only once. Like-named read-outs stand apart in the source and are kept apart here.

For this assay, the target named is T1, 5-lipoxygenase (Rattus norvegicus, UniProt P12527).
T1 construct: supernatant fraction of Rat Basophilic Leukemia Cell Homogenate (RBL-1) serves as a 5-lipoxygenase enzyme source; endogenous in cells; host or cells: RBL-1 (rat basophilic leukemia) cells, 100,000 x g supernatant of the homogenate
T1 sequence (P12527 1-673): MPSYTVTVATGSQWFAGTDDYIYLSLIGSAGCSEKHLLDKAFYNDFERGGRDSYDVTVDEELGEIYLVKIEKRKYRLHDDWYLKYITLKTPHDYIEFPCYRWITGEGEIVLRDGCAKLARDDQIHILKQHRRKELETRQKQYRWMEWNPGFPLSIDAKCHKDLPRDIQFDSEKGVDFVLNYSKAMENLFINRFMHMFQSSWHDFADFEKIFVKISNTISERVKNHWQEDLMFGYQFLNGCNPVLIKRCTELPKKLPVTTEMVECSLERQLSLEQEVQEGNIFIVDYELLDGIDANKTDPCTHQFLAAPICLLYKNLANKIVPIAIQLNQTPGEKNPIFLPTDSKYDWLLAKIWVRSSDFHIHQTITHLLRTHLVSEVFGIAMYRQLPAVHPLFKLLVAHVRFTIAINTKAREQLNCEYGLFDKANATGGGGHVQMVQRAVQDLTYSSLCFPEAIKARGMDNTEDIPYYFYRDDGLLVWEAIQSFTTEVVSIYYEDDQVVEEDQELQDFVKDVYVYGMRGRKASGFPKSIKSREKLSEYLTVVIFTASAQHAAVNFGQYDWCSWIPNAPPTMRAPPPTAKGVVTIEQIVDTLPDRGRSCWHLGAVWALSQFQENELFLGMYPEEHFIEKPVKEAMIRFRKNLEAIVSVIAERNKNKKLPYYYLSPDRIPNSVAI
The experiment in a line: Inhibition of 5-lipoxygenase, in vitro (5-HETE synthesis, RBL-1 100,000 x g supernatant). It counts as biochemical. The note with it: for inhibition at 100 µM: RBL-1 supernatant, 5-HETE synthesis. The protocol: The compounds of the invention are evaluated with respect to 5-lipoxygenaseinhibition according to the following assay procedure.
Inhibition of 5-lipoxygenase, in vitro : anti-inflammatory, anti-allergy activities.
The 100,000 x g supernatant fraction of Rat Basophilic Leukemia Cell Homogenate (RBL-1) serves as a 5-lipoxygenase enzyme source. The enzyme is incubated with [1-^14 C)-arachidonic acid and Ca++ in the presence and absence of test compound. The product of 5-lipoxygenase, 5-hydroxyeicosatetraenoic acid (5-HETE), is separated by thin-layer chromatography and measured by radioactivity.
When more than one result is listed, this indicates the results from additional tests.

[1] abbreviates: Rat Basophilic Leukemia Cell Homogenate (RBL-1) supernatant, [1-14C]-arachidonic acid and Ca++, several values = results from additional tests, read-out: 5-Lipoxygenase Inhibition IC50.

By IC50 is commonly meant the concentration that inhibits the measured activity by half. For `CCCCCCCCc1ccc(/C=C(\C(C)=O)C(=O)OCC)cc1` [Example 3C, Ethyl 2E-[(4-octylphenyl)methylene]-3-oxobutanoate], the IC50 under setting [1] is 5.9 µM and 14 µM. What is called inhibition is the percentage by which the read-out fell short of the control. The molecule `CCCCCCCCc1ccc(C=C(C(=O)OCC)C(=O)OCC)cc1` [Example 4, Diethyl 2-[(4-octylphenyl)methylene]propanedioate] returned an inhibition at 100 µM of 45.6%. For `CCCCCCc1ccc(/C=C(/C(C)=O)C(=O)OCC)cc1` [Example 1B, Ethyl 2Z-[(4-hexylphenyl)methylene]-3-oxobutanoate], under setting [1], the IC50 is 7.6 µM and 5.9 µM. Regarding `CCOC(=O)/C(=C\c1ccc([N+](=O)[O-])cc1)C(C)=O` [Example 7H, Ethyl 2Z-[(4-nitrophenyl)methylene]-3-oxobutanoate], under setting [1], the IC50 is 78 µM. Regarding `CCCCCCCCc1ccc(/C=C/C(C)=O)cc1` [Example 8, 4-(4-octylphenyl)-3E-buten-2-one], the IC50 was 100 µM. In the case of `CCCCCCc1ccc(/C=C/C(C)=O)cc1` [Example 9, 4-(4-hexylphenyl)-3E-buten-2-one], the IC50 under setting [1] was 100 µM.

Turning to `CCCCCCc1ccc(/C=C(\C(C)=O)C(=O)OCC)cc1` [Example 1A, Ethyl 2E-[(4-hexylphenyl)methylene]-3-oxobutanoate], the IC50 under setting [1] was 3 µM and 7.9 µM and 15 µM. As to `CCCCCCc1ccc(C=C(C(=O)OCC)C(=O)OCC)cc1` [Example 10, Diethyl 2-[(4-hexylphenyl)methylene]propanedioate], under setting [1], the IC50 came to 100 µM. Regarding `CCOC(=O)/C(=C/c1ccc(Cl)cc1)C(C)=O` [Example 6E, Ethyl 2E-[(4-chlorophenyl)methylene]-3-oxobutanoate], the IC50 under setting [1] was found to be 47 µM. Consider `CCOC(=O)/C(=C\c1ccc(Cl)cc1)C(C)=O` [Example 6F, Ethyl 2Z-[(4-chlorophenyl)methylene]-3-oxobutanoate], for which the IC50 under setting [1] stood at 56 µM. `CCCCCCCCc1ccc(/C=C(/C(C)=O)C(=O)OCC)cc1` [Example 3D, Ethyl 2Z-[(4-octylphenyl)methylene]-3-oxobutanoate] displayed an inhibition at 100 µM of 42%. For the molecule `CCOC(=O)/C(=C/c1ccc([N+](=O)[O-])cc1)C(C)=O` [Example 7G, Ethyl 2E-[(4-nitrophenyl)methylene]-3-oxobutanoate], under setting [1], the IC50 was 74 µM. Take `CCCCCCc1ccc(/C=C(/C(C)=O)C(=O)c2ccccc2)cc1` [Example 2, 2Z-[(4-hexylphenyl)methylene]-1-phenyl-1,3-butanedione]: under setting [1], the IC50 was 18 µM. For `CCCCCCCCc1ccc(C=C(C(C)=O)C(C)=O)cc1` [Example 5, 3-[(4-octylphenyl)methylene]-2,4-pentanedione], the IC50 under setting [1] was 4.4 µM.
